The source of these data is patent US6177475A, “Methods of using integrin modulators for treatment of inflammation” (priority 1997, dated 2001).

SMILES strings stand for the structures. pIC50: −log10 of the molar value. Read-outs that look alike come from different tables or passages of the source.

For orientation: pIC50 means the IC50 on a negative log10 scale, so that one unit is a factor of ten.

Experiment [1] concerns VLA-4 (MV3 cells, VCAM-1). The experiment can be described thus: VLA-4-dependent adhesion of human melanoma MV3 cells to VCAM-1. The format is cell-based. The following applies: MV-3, 1 h, 37° C. As to the method: (§1) Microtiter plates were coated with ligands of the integrin VLA-4, i.e., recombinant human VCAM-1 (500 nanograms per well) or the fragment of connective segment of human fibronectin (CS-1), covalently attached to ovalbumin (5 micrograms per well) by overnight incubation (4° C.) with solutions of the proteins in phosphate-buffered saline (PBS). The plates were blocked with 1% bovine serum albumin (BSA) in Hanks' buffered salt solution (HBSS-BSA). The cells (Jurkat or human melanoma MV3) were labeled with the fluorescent dye 5-chloromethylfluorescein diacetate (CMFDA) and introduced into the wells of the plates (10^5 cells per well) together with varying amounts of Ajoene. After incubation at 37° C. for 1 h, the unbound cells were removed by aspiration and the wells washed four times with HBSS-BSA. Thereafter, the bound cells were lysed with 0.5% Triton X-100, and the fluorescence was measured using a Cytofluor 2300 plate reader. The number of adherent cells was calculated from a standard dilution curve of Triton X-100 lysates of the CMFDA-labeled cells.

The test system of experiment [2] is VLA-4 (CS-1). Briefly: VLA-4-dependent adhesion of Jurkat and MV3 cells to CS-1. The format is cell-based, human. The following applies: in this concentration range. Here is the method:
as §1

In experiment [3] the test system is LFA-1 (ICAM-1). Briefly: Adhesion of TPA-activated Jurkat cells to SVT2/ICAM-1 monolayers. The format is cell-based. The following applies: Homo sapiens, 0.75 h, SVT2/ICAM-1, TPA 125 ng/ml, 45 min. As to the method: SVT2 cells transfected with human ICAM-1 or VCAM-1 (SVT2/ICAM-1 and […], respectively) were plated into 96-well plates and cultured overnight. […] The labeled Jurkat cells were washed three times and resuspended at a density of 4×10^6 cells/ml in complete RPMI medium. Serial dilutions of Ajoene were prepared in complete RPMI medium. Aliquots of the cells (0.5 ml) were then mixed with an equal volume of Ajoene dilutions (1:1 v/v), and the mixtures incubated at 37° C. for 30 min. Thereafter, Ajoene-incubated cells were added in duplicate to SVT2/ICAM-1 and SVT2/VCAM-1 monolayers, and TPA was introduced into each well to the final concentration of 125 ng/ml. The plates were incubated at 37° C. for 45 min, after which the non-adherent cells were removed by washing with warm complete RPMI medium. The bound labeled cells were lysed by adding 1% Triton X-100 solution in 0.1 N HCl. The lysates were assayed in a gamma counter to determine the percentage of bound cells. […] Thus, coculturing of Jurkat cells with SVT2/ICAM-1 and SVT2/VCAM-1 cells makes it possible to assess, respectively, the function of IFA-1 and VLA-4 under identical conditions. In the absence of TPA, 10 and 20% of the added Jurkat cells adhered to SVT2/ICAM-1 and SVT2/VCAM-1 cells, respectively. […]

For experiment [4], the system named is HIV-1LAV-BRU 1. Briefly: HIV-1LAV-BRU 1 replication in CEM13 cells (HIV antigens by solid phase immunoassay). The format is cell-based. The conditions noted are these: for pIC50: Human immunodeficiency virus 1, CEM13 cells.
For experiment [5], the system named is HIV-1LBi (HIV-infected MOLT-4 cells, syncytiotrophoblasts). The experiment can be described thus: Lymphocyte-mediated HIV infection of syncytiotrophoblasts. The format is cell-based. The conditions noted are these: 200 micromoles per liter, 24 hours, virtually all colonies. The text has this: Human fetal placental epithelial cells, known as syncytiotrophoblasts, were organized in a monolayer and exposed to HIV-infected lymphocytic cells and, as a negative control, to uninfected cells of the same type. This experimental system, closely simulating the actual conditions under which syncytiotrophoblasts would be exposed to HIV-infected cells in vivo, was used to assess integrin-modulating effects of Ajoene.
In order to assess the ability of Ajoene to inhibit lymphocyte-mediated HIV infection of syncytiotrophoblasts, HIV-1LBi -infected MOLT-4 cells were added to adherent cultures of uninfected syncytiotrophoblasts in the presence and absence of Ajoene. Various additional control conditions were also established. First, some wells received filtered (0.45 micrometer) supernatant of cell-free HIV from infected cell cultures. Yet other negative controls included syncytiotrophoblasts cultured alone and syncytiotrophoblasts cultured with uninfected MOLT-4 cells. After 24 hours, the cocultures were washed to removed unbound lymphocytes, fixed, permeabilized, stained for viral core antigens (p24 and p55), and viewed under a fluorescence microscope.

Consider `C=CCSSC=CC[S+]([O-])CC=C` (stereo not shown) [Ajoene, 4,5,9-trithiadodeca-1,6,11-triene-9-oxide], for which the pIC50 in experiment [1] is 3.90; in experiment [3], 5.00; in experiment [4] (HIV-1Lav-BRU1, read-out: IC50 of HIV replication (FIG. 1, curve 2)), roughly 5.30; in experiment [4] (m.o.i. 0.1, 72 h, read-out: IC50 for HIV-1LAV-BRU 1 replication), roughly 5.30. The “inhibition of adhesion to CS-1” value in experiment [2] is on record as “no inhibition of adhesion to CS-1 could be detected”. The “inhibition of HIV replication, stepwise addition” value in experiment [4] (50 nanomoles per liter per 12 h, total 0.25 micromoles per liter, m.o.i. 0.1, 72 h) is listed as 30%. The “prevention of lymphocyte-mediated HIV infection of syncytiotrophoblasts” value in experiment [5] was “totally prevented”.
